Drawing on patent US12448388B2, “PRMT5 inhibitors and uses thereof” (Gilead Sciences, Inc., priority 2023, dated 2025), this text covers CC50 for 22 compounds.

The term CC50 denotes the concentration at which the toxic effect on the cells reaches its halfway point.

The assay has as its system HCT116 MTAP-deleted cell lines. The assay is described as follows: Cell viability assay (CellTiter-Glo, 7 days), HCT116 MTAP-deleted. It is filed as cell-based. Particulars: Homo sapiens, HCT-116; cell viability assay, HCT116 MTAP-deleted; class symbols; read-out: CC50. Summed up:
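Read-out was CellTiter-Glo luminescence after a 7-day incubation (37 °C, 5% CO2) of HCT116 cells, MTAP-deleted or WT, on dose-response compound plates. CC50 values come from each line; where marked *, selectivity is overstated because poor solubility impaired the WT CC50 measurement.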
On the technique in general: In ATP-based viability assays light output follows the ATP content of the culture.
Regarding `CN(Cc1nc(-c2cnn(C(F)(F)F)c2)cs1)C(=O)c1cc2c(cc1F)nc(N)c1cncn12` [Ff-550, 4-amino-7-fluoro-N-methyl-N-((4-(1-(trifluoromethyl)-1H-pyrazol-4-yl)thiazol-2-yl)methyl)imidazo[1,5-a]quinoxaline-8-carboxamide], the CC50 is 100 to 1000 nM. Under `CN(Cc1ccc(-c2cnn(C(F)F)c2)cc1Cl)C(=O)c1cc2c(cc1F)nc(N)c1cncn12` [Ff-551, 4-amino-N-(2-chloro-4-(1-(difluoromethyl)-1H-pyrazol-4-yl)benzyl)-7-fluoro-N-methylimidazo[1,5-a]quinoxaline-8-carboxamide] stands 100 to 1000 nM; under `CN(Cc1ccc(-c2cnn(C(F)(F)F)c2)cc1Cl)C(=O)c1cc2c(cc1F)nc(N)c1cncn12` [Ff-552, 4-amino-N-(2-chloro-4-(1-(trifluoromethyl)-1H-pyrazol-4-yl)benzyl)-7-fluoro-N-methylimidazo[1,5-a]quinoxaline-8-carboxamide], 100 to 1000 nM.

In the case of `COc1cc(-c2cnn(C(F)F)c2)ccc1CN(C)C(=O)c1cc2c(cc1F)nc(N)c1cncn12` [Ff-553, 4-amino-N-(4-(1-(difluoromethyl)-1H-pyrazol-4-yl)-2-methoxybenzyl)-7-fluoro-N-methylimidazo[1,5-a]quinoxaline-8-carboxamide], the CC50 fell in the range of 100 to 1000 nM.

`COc1cc(-c2cnn(C(F)(F)F)c2)ccc1CN(C)C(=O)c1cc2c(cc1F)nc(N)c1cncn12` [Ff-554, 4-amino-N-(4-(1-(trifluoromethyl)-1H-pyrazol-4-yl)-2-methoxybenzyl)-7-fluoro-N-methylimidazo[1,5-a]quinoxaline-8-carboxamide]: the 50% cytotoxic concentration (CC50) is 100 to 1000 nM. Under `CN(C(=O)c1cc2c(cc1F)nc(N)c1cncn12)C1COc2cc(Br)c(F)cc21` (stereo not shown) [Ff-560, 4-amino-N-(6-bromo-5-fluoro-2,3-dihydrobenzofuran-3-yl)-7-fluoro-N-methylimidazo[1,5-a]quinoxaline-8-carboxamide] stands below 100 nM; under `CN(C(=O)c1cc2c(cc1C#N)nc(N)c1cncn12)[C@@H]1COc2cc(OC(F)(F)F)ccc21` [Ff-561, (S)-4-amino-7-cyano-N-methyl-N-(6-(trifluoromethoxy)-2,3-dihydrobenzofuran-3-yl)imidazo[1,5-a]quinoxaline-8-carboxamide], below 100 nM; under `CN(C(=O)c1cc2c(cc1Cl)nc(N)c1cncn12)[C@@H]1COc2cc(OC(F)(F)F)ccc21` [Ff-562, (S)-4-amino-7-chloro-N-methyl-N-(6-(trifluoromethoxy)-2,3-dihydrobenzofuran-3-yl)imidazo[1,5-a]quinoxaline-8-carboxamide], below 100 nM. To `CN(C(=O)c1ccc2nc(N)c3cncn3c2c1)[C@@H]1COc2cc(OC(F)(F)F)ccc21` [Ff-563, (S)-4-amino-N-methyl-N-(6-(trifluoromethoxy)-2,3-dihydrobenzofuran-3-yl)imidazo[1,5-a]quinoxaline-8-carboxamide] belongs below 100 nM; to `Cc1ncc2c(N)nc3cc(F)c(C(=O)N(C)[C@@H]4COc5cc(OC(F)(F)F)ccc54)cc3n12` [Ff-564, (S)-4-amino-7-fluoro-N,1-dimethyl-N-(6-(trifluoromethoxy)-2,3-dihydrobenzofuran-3-yl)imidazo[1,5-a]quinoxaline-8-carboxamide], below 100 nM. As to `CN(C(=O)c1cc2c(cn1)nc(N)c1cncn12)[C@@H]1COc2cc(OC(F)(F)F)ccc21` [Ff-565, (S)-4-amino-N-methyl-N-(6-(trifluoromethoxy)-2,3-dihydrobenzofuran-3-yl)imidazo[1,5-a]pyrido[3,4-e]pyrazine-8-carboxamide], the CC50 lay in the range of 100 to 1000 nM. To `CN(C(=O)c1ccc2nc(N)c3cncn3c2c1)[C@@H]1COc2cc(F)ccc21` [Ff-569, (S)-4-amino-N-(6-fluoro-2,3-dihydrobenzofuran-3-yl)-N-methylimidazo[1,5-a]quinoxaline-8-carboxamide] belongs 100 to 1000 nM; to `CN(C(=O)c1ccc2nc(N)c3cncn3c2c1)[C@@H](c1ccc(C(F)(F)F)cc1Cl)C(F)F` [Ff-570, (S)-4-amino-N-(1-(2-chloro-4-(trifluoromethyl)phenyl)-2,2-difluoroethyl)-N-methylimidazo[1,5-a]quinoxaline-8-carboxamide], 100 to 1000 nM. To `CN(C(=O)c1cc2c(cn1)nc(N)c1cncn12)[C@@H](c1ccc(C(F)(F)F)cc1Cl)C(F)F` [Ff-571, (S)-4-amino-N-(1-(2-chloro-4-(trifluoromethyl)phenyl)-2,2-difluoroethyl)-N-methylimidazo[1,5-a]pyrido[3,4-e]pyrazine-8-carboxamide] belongs 100 to 1000 nM. Turning to `CN(C(=O)c1cc2c(cc1F)nc(N)c1cncn12)[C@@H]1COc2cc(C3CC(F)(F)C3)ccc21` [Ff-572, (S)-4-amino-N-(6-(3,3-difluorocyclobutyl)-2,3-dihydrobenzofuran-3-yl)-7-fluoro-N-methylimidazo[1,5-a]quinoxaline-8-carboxamide], the cytotoxic concentration (CC50) is below 100 nM. Under `CN(C(=O)c1cc2c(cc1F)nc(N)c1cncn12)[C@@H]1COc2cc(C3COC3)ccc21` [Ff-573, (S)-4-amino-7-fluoro-N-methyl-N-(6-(oxetan-3-yl)-2,3-dihydrobenzofuran-3-yl)imidazo[1,5-a]quinoxaline-8-carboxamide] stands 100 to 1000 nM; under `CN(C(=O)c1cc2c(cc1F)nc(N)c1cncn12)[C@@H]1COc2cc(C3CC3(F)F)ccc21` (stereo partly drawn) [Ff-574, 4-amino-N-((3S)-6-(2,2-difluorocyclopropyl)-2,3-dihydrobenzofuran-3-yl)-7-fluoro-N-methylimidazo[1,5-a]quinoxaline-8-carboxamide], below 100 nM. Under `CN(C(=O)c1cc2c(cc1F)nc(N)c1cncn12)[C@@H]1COc2cc(C3(C)CC3(F)F)ccc21` (stereo partly drawn) [Ff-575, 4-amino-N-((3S)-6-(2,2-difluoro-1-methylcyclopropyl)-2,3-dihydrobenzofuran-3-yl)-7-fluoro-N-methylimidazo[1,5-a]quinoxaline-8-carboxamide] stands below 100 nM; under `CN(C(=O)c1cc2c(cc1F)nc(N)c1cncn12)[C@@H]1COc2cc(C(F)F)ccc21` [Ff-576, (S)-4-amino-N-(6-(difluoromethyl)-2,3-dihydrobenzofuran-3-yl)-7-fluoro-N-methylimidazo[1,5-a]quinoxaline-8-carboxamide], 100 to 1000 nM. Under `CN(C(=O)c1cc2c(cc1F)nc(N)c1cncn12)C(c1ccc(C(F)(F)F)cn1)C(F)F` (stereo not shown) [Ff-577, 4-amino-N-(2,2-difluoro-1-(5-(trifluoromethyl)pyridin-2-yl)ethyl)-7-fluoro-N-methylimidazo[1,5-a]quinoxaline-8-carboxamide] stands 100 to 1000 nM; under `C[C@H]1CN(C(=O)c2cc3c(cc2F)nc(N)c2cncn23)[C@H]2c3ccc(C#N)cc3C[C@H]2O1` [Ff-578, (2S,4aS,9aR)-4-(4-amino-7-fluoroimidazo[1,5-a]quinoxaline-8-carbonyl)-2-methyl-2,3,4,4a,9,9a-hexahydroindeno[2,1-b][1,4]oxazine-7-carbonitrile], below 100 nM.

With `CO[C@@H]1Cc2cc(Br)ccc2[C@@H]1N(C)C(=O)c1cc2c(cc1F)nc(N)c1cncn12` [Ff-579, 4-amino-N-((1S,2R)-5-bromo-2-methoxy-2,3-dihydro-1H-inden-1-yl)-7-fluoro-N-methylimidazo[1,5-a]quinoxaline-8-carboxamide], the cytotoxic concentration (CC50) is below 100 nM.
